Measurements reported in article PMC6934184, “Selective DNA-PKcs inhibition extends the therapeutic index of localized radiotherapy and chemotherapy” (The Journal of Clinical Investigation, 2019).

Biological target: T1, CDK7/cyclin H/MNAT1 (Homo sapiens, UniProt P50613)
T1 construct: purchased Thermo Fisher Scientific (Life Technologies) SelectScreen
Assay: SelectScreen Adapta
Format: biochemical
Procedure, shortened: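 Percent values come from Thermo SelectScreen profiling of NU5455, combining activity and binding assays. CSF1R was run in Z'LYTE format at Km app ATP, and CAMK1 in Adapta format with ATP listed at 10.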

T1 sequence (P50613 whole entry): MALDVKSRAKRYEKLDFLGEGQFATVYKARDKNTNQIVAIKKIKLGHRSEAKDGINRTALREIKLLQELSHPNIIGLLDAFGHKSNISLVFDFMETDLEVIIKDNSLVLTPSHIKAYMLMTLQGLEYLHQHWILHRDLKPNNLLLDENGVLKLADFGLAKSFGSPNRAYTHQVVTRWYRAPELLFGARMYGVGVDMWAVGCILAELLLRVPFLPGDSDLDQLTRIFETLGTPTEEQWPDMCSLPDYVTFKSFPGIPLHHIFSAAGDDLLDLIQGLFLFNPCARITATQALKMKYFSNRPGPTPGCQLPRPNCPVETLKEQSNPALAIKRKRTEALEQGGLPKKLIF
T1 sequence (P51946 whole entry partner): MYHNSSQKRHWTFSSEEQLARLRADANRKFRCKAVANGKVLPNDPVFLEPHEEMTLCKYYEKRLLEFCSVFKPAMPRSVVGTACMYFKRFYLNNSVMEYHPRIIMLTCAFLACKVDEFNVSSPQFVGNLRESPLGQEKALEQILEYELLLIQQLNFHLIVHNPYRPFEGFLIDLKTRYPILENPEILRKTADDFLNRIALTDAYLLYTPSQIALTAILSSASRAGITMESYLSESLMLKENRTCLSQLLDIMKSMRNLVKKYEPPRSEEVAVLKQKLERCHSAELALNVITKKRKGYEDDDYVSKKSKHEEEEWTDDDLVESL
T1 sequence (P51948 whole entry partner): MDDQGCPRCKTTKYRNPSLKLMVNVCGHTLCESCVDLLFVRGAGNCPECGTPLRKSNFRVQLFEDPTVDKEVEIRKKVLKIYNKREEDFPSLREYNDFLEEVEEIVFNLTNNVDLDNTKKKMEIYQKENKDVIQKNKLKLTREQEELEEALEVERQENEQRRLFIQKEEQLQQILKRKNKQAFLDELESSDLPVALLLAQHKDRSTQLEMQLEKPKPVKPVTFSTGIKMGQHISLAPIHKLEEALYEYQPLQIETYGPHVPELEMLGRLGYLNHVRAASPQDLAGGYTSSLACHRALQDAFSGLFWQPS

CN(C(=O)CN1CCOCC1)c1ccc2sc3c(-c4cccc5c(=O)cc(N6CC7CCC(C6)O7)oc45)cccc3c2c1 [NU5455]
inhibition at 1 µM: 5.3%
